Assay results taken from ChEMBL document CHEMBL3044736, “Synthesis, characterization, solvatochromic properties, and antimicrobial evaluation of 5-acetyl-2-thioxo-dihydro-pyrimidine-4,6-dione-based chalcones” (2013).
≈ marks a conversion by molar mass, not a printed value.

Columns and labels:
Format in all cases: functional
Streptococcus pyogenes [1] = test: Antimicrobial activity against Streptococcus pyogenes MTCC 442 assessed as diameter of growth inhibition zone at 25 ug/ml after 18-24 hr by agar cup diffusion method; settings: read-out: DIZ
Pseudomonas aeruginosa [2] = test: Antimicrobial activity against Pseudomonas aeruginosa MTCC 1688 assessed as diameter of growth inhibition zone at 100 ug/ml after 18-24 hr by agar cup diffusion method; settings: read-out: DIZ
Trichophyton rubrum [3] = test: Antimicrobial activity against Trichophyton rubrum MTCC 296 assessed as diameter of growth inhibition zone at 50 ug/ml after 48-96 hr by agar cup diffusion method; settings: read-out: DIZ
Streptococcus pyogenes [4] = test: Antimicrobial activity against Streptococcus pyogenes MTCC 442 assessed as diameter of growth inhibition zone at 250 ug/ml after 18-24 hr by agar cup diffusion method; settings: read-out: DIZ
Aspergillus clavatus [5] = test: Antimicrobial activity against Aspergillus clavatus MTCC 1323 by agar cup diffusion method
Streptococcus pyogenes [6] = test: Antimicrobial activity against Streptococcus pyogenes MTCC 442 assessed as diameter of growth inhibition zone at 100 ug/ml after 18-24 hr by agar cup diffusion method; settings: read-out: DIZ
Escherichia coli [7] = test: Antimicrobial activity against Escherichia coli MTCC 443 assessed as diameter of growth inhibition zone at 250 ug/ml after 18-24 hr by agar cup diffusion method; settings: read-out: DIZ
Escherichia coli [8] = test: Antimicrobial activity against Escherichia coli MTCC 443 assessed as diameter of growth inhibition zone at 50 ug/ml after 18-24 hr by agar cup diffusion method; settings: read-out: DIZ
Streptococcus pyogenes [9] = test: Antimicrobial activity against Streptococcus pyogenes MTCC 442 by agar cup diffusion method
Pseudomonas aeruginosa [10] = test: Antimicrobial activity against Pseudomonas aeruginosa MTCC 1688 assessed as diameter of growth inhibition zone at 250 ug/ml after 18-24 hr by agar cup diffusion method; settings: read-out: DIZ
Aspergillus clavatus [11] = test: Antimicrobial activity against Aspergillus clavatus MTCC 1323 assessed as diameter of growth inhibition zone at 50 ug/ml after 48-96 hr by agar cup diffusion method; settings: read-out: DIZ
Trichophyton rubrum [12] = test: Antimicrobial activity against Trichophyton rubrum MTCC 296 assessed as diameter of growth inhibition zone at 100 ug/ml after 48-96 hr by agar cup diffusion method; settings: read-out: DIZ
Aspergillus clavatus [13] = test: Antimicrobial activity against Aspergillus clavatus MTCC 1323 assessed as diameter of growth inhibition zone at 25 ug/ml after 48-96 hr by agar cup diffusion method; settings: read-out: DIZ
Pseudomonas aeruginosa [14] = test: Antimicrobial activity against Pseudomonas aeruginosa MTCC 1688 assessed as diameter of growth inhibition zone at 50 ug/ml after 18-24 hr by agar cup diffusion method; settings: read-out: DIZ
Penicillium [15] = test: Antimicrobial activity against Penicillium wild strain assessed as diameter of growth inhibition zone at 25 ug/ml after 48-96 hr by agar cup diffusion method; settings: read-out: DIZ
Aspergillus clavatus [16] = test: Antimicrobial activity against Aspergillus clavatus MTCC 1323 assessed as diameter of growth inhibition zone at 250 ug/ml after 48-96 hr by agar cup diffusion method; settings: read-out: DIZ
Staphylococcus aureus [17] = test: Antimicrobial activity against Staphylococcus aureus MTCC 96 assessed as diameter of growth inhibition zone at 50 ug/ml after 18-24 hr by agar cup diffusion method; settings: read-out: DIZ
Trichophyton rubrum [18] = test: Antimicrobial activity against Trichophyton rubrum MTCC 296 assessed as diameter of growth inhibition zone at 250 ug/ml after 48-96 hr by agar cup diffusion method; settings: read-out: DIZ
Escherichia coli [19] = test: Antimicrobial activity against Escherichia coli MTCC 443 assessed as diameter of growth inhibition zone at 100 ug/ml after 18-24 hr by agar cup diffusion method; settings: read-out: DIZ
Trichophyton rubrum [20] = test: Antimicrobial activity against Trichophyton rubrum MTCC 296 by agar cup diffusion method
Streptococcus pyogenes [21] = test: Antimicrobial activity against Streptococcus pyogenes MTCC 442 assessed as diameter of growth inhibition zone at 50 ug/ml after 18-24 hr by agar cup diffusion method; settings: read-out: DIZ
Klebsiella pneumoniae [22] = test: Antimicrobial activity against Klebsiella pneumoniae MTCC 109 assessed as diameter of growth inhibition zone at 100 ug/ml after 18-24 hr by agar cup diffusion method; settings: read-out: DIZ
Penicillium [23] = test: Antimicrobial activity against Penicillium wild strain assessed as diameter of growth inhibition zone at 50 ug/ml after 48-96 hr by agar cup diffusion method; settings: read-out: DIZ
Pseudomonas aeruginosa [24] = test: Antimicrobial activity against Pseudomonas aeruginosa MTCC 1688 assessed as diameter of growth inhibition zone at 25 ug/ml after 18-24 hr by agar cup diffusion method; settings: read-out: DIZ
Candida albicans [25] = test: Antimicrobial activity against Candida albicans MTCC 227 assessed as diameter of growth inhibition zone at 50 ug/ml after 48-96 hr by agar cup diffusion method; settings: read-out: DIZ
Pseudomonas aeruginosa [26] = test: Antimicrobial activity against Pseudomonas aeruginosa MTCC 1688 by agar cup diffusion method
Penicillium [27] = test: Antimicrobial activity against Penicillium wild strain assessed as diameter of growth inhibition zone at 100 ug/ml after 48-96 hr by agar cup diffusion method; settings: read-out: DIZ
Klebsiella pneumoniae [28] = test: Antimicrobial activity against Klebsiella pneumoniae MTCC 109 assessed as diameter of growth inhibition zone at 50 ug/ml after 18-24 hr by agar cup diffusion method; settings: read-out: DIZ
Candida albicans [29] = test: Antimicrobial activity against Candida albicans MTCC 227 by agar cup diffusion method
Staphylococcus aureus [30] = test: Antimicrobial activity against Staphylococcus aureus MTCC 96 assessed as diameter of growth inhibition zone at 25 ug/ml after 18-24 hr by agar cup diffusion method; settings: read-out: DIZ
Staphylococcus aureus [31] = test: Antimicrobial activity against Staphylococcus aureus MTCC 96 assessed as diameter of growth inhibition zone at 250 ug/ml after 18-24 hr by agar cup diffusion method; settings: read-out: DIZ
Staphylococcus aureus [32] = test: Antimicrobial activity against Staphylococcus aureus MTCC 96 assessed as diameter of growth inhibition zone at 100 ug/ml after 18-24 hr by agar cup diffusion method; settings: read-out: DIZ
Escherichia coli [33] = test: Antimicrobial activity against Escherichia coli MTCC 443 by agar cup diffusion method
Candida albicans [34] = test: Antimicrobial activity against Candida albicans MTCC 227 assessed as diameter of growth inhibition zone at 25 ug/ml after 48-96 hr by agar cup diffusion method; settings: read-out: DIZ
Aspergillus clavatus [35] = test: Antimicrobial activity against Aspergillus clavatus MTCC 1323 assessed as diameter of growth inhibition zone at 100 ug/ml after 48-96 hr by agar cup diffusion method; settings: read-out: DIZ
Candida albicans [36] = test: Antimicrobial activity against Candida albicans MTCC 227 assessed as diameter of growth inhibition zone at 250 ug/ml after 48-96 hr by agar cup diffusion method; settings: read-out: DIZ
Escherichia coli [37] = test: Antimicrobial activity against Escherichia coli MTCC 443 assessed as diameter of growth inhibition zone at 25 ug/ml after 18-24 hr by agar cup diffusion method; settings: read-out: DIZ
Penicillium [38] = test: Antimicrobial activity against Penicillium wild strain by agar cup diffusion method
Klebsiella pneumoniae [39] = test: Antimicrobial activity against Klebsiella pneumoniae MTCC 109 by agar cup diffusion method
Candida albicans [40] = test: Antimicrobial activity against Candida albicans MTCC 227 assessed as diameter of growth inhibition zone at 100 ug/ml after 48-96 hr by agar cup diffusion method; settings: read-out: DIZ
Klebsiella pneumoniae [41] = test: Antimicrobial activity against Klebsiella pneumoniae MTCC 109 assessed as diameter of growth inhibition zone at 25 ug/ml after 18-24 hr by agar cup diffusion method; settings: read-out: DIZ
Staphylococcus aureus [42] = test: Antimicrobial activity against Staphylococcus aureus MTCC 96 by agar cup diffusion method
Trichophyton rubrum [43] = test: Antimicrobial activity against Trichophyton rubrum MTCC 296 assessed as diameter of growth inhibition zone at 25 ug/ml after 48-96 hr by agar cup diffusion method; settings: read-out: DIZ
Penicillium [44] = test: Antimicrobial activity against Penicillium wild strain assessed as diameter of growth inhibition zone at 250 ug/ml after 48-96 hr by agar cup diffusion method; settings: read-out: DIZ
Klebsiella pneumoniae [45] = test: Antimicrobial activity against Klebsiella pneumoniae MTCC 109 assessed as diameter of growth inhibition zone at 250 ug/ml after 18-24 hr by agar cup diffusion method; settings: read-out: DIZ

O=C(/C=C/c1ccc([N+](=O)[O-])cc1)C1C(=O)NC(=S)NC1=O gave a zone of inhibition at 25 µg/mL (Streptococcus pyogenes [1]) of 12 mm, a zone of inhibition at 100 µg/mL (Pseudomonas aeruginosa [2]) of 18 mm and a zone of inhibition at 50 µg/mL (Trichophyton rubrum [3]) of 22 mm. It also gave a zone of inhibition at 250 µg/mL (Streptococcus pyogenes [4]) of 23 mm, an MFC (Aspergillus clavatus [5]) of 1000 µg/mL (≈ 3130 µM) and an MIC (Aspergillus clavatus [5]) of 1000 µg/mL (≈ 3130 µM). For the same compound, the zone of inhibition at 100 µg/mL (Streptococcus pyogenes [6]) was 19 mm, the zone of inhibition at 250 µg/mL (Escherichia coli [7]) was 23 mm and the zone of inhibition at 50 µg/mL (Escherichia coli [8]) was 15 mm. It also gave an MBC (Streptococcus pyogenes [9]) of 100 µg/mL (≈ 313 µM), an MIC (Streptococcus pyogenes [9]) of 100 µg/mL (≈ 313 µM) and a zone of inhibition at 250 µg/mL (Pseudomonas aeruginosa [10]) of 20 mm. The zone of inhibition at 50 µg/mL (Aspergillus clavatus [11]) was 21 mm, the zone of inhibition at 100 µg/mL (Trichophyton rubrum [12]) was 23 mm and the zone of inhibition at 25 µg/mL (Aspergillus clavatus [13]) was 20 mm. It also gave a zone of inhibition at 50 µg/mL (Pseudomonas aeruginosa [14]) of 13 mm, a zone of inhibition at 25 µg/mL (Penicillium [15]) of 21 mm and a zone of inhibition at 250 µg/mL (Aspergillus clavatus [16]) of 24 mm. For the same compound, the zone of inhibition at 50 µg/mL (Staphylococcus aureus [17]) was 13 mm, the zone of inhibition at 250 µg/mL (Trichophyton rubrum [18]) was 25 mm and the zone of inhibition at 100 µg/mL (Escherichia coli [19]) was 19 mm. For the same compound, the MFC (Trichophyton rubrum [20]) was 1000 µg/mL (≈ 3130 µM), the MIC (Trichophyton rubrum [20]) was 1000 µg/mL (≈ 3130 µM) and the zone of inhibition at 50 µg/mL (Streptococcus pyogenes [21]) was 15 mm. The zone of inhibition at 100 µg/mL (Klebsiella pneumoniae [22]) was 15 mm, the zone of inhibition at 50 µg/mL (Penicillium [23]) was 21 mm and the zone of inhibition at 25 µg/mL (Pseudomonas aeruginosa [24]) was 11 mm. The zone of inhibition at 50 µg/mL (Candida albicans [25]) was 21 mm, the MBC (Pseudomonas aeruginosa [26]) was 250 µg/mL (≈ 783 µM) and the MIC (Pseudomonas aeruginosa [26]) was 250 µg/mL (≈ 783 µM). For the same compound, the zone of inhibition at 100 µg/mL (Penicillium [27]) was 23 mm, the zone of inhibition at 50 µg/mL (Klebsiella pneumoniae [28]) was 13 mm and the MFC (Candida albicans [29]) was 1000 µg/mL (≈ 3130 µM). The MIC (Candida albicans [29]) was 1000 µg/mL (≈ 3130 µM), the zone of inhibition at 25 µg/mL (Staphylococcus aureus [30]) was 11 mm and the zone of inhibition at 250 µg/mL (Staphylococcus aureus [31]) was 20 mm. It also gave a zone of inhibition at 100 µg/mL (Staphylococcus aureus [32]) of 18 mm, an MBC (Escherichia coli [33]) of 500 µg/mL (≈ 1570 µM) and an MIC (Escherichia coli [33]) of 250 µg/mL (≈ 783 µM). It also gave a zone of inhibition at 25 µg/mL (Candida albicans [34]) of 20 mm, a zone of inhibition at 100 µg/mL (Aspergillus clavatus [35]) of 22 mm and a zone of inhibition at 250 µg/mL (Candida albicans [36]) of 25 mm. It also gave a zone of inhibition at 25 µg/mL (Escherichia coli [37]) of 12 mm, an MFC (Penicillium [38]) of 500 µg/mL (≈ 1570 µM) and an MIC (Penicillium [38]) of 500 µg/mL (≈ 1570 µM). The MBC (Klebsiella pneumoniae [39]) was 200 µg/mL (≈ 626 µM), the MIC (Klebsiella pneumoniae [39]) was 200 µg/mL (≈ 626 µM) and the zone of inhibition at 100 µg/mL (Candida albicans [40]) was 25 mm. For the same compound, the zone of inhibition at 25 µg/mL (Klebsiella pneumoniae [41]) was 11 mm, the MBC (Staphylococcus aureus [42]) was 200 µg/mL (≈ 626 µM) and the MIC (Staphylococcus aureus [42]) was 125 µg/mL (≈ 391 µM). For the same compound, the zone of inhibition at 25 µg/mL (Trichophyton rubrum [43]) was 20 mm, the zone of inhibition at 250 µg/mL (Penicillium [44]) was 25 mm and the zone of inhibition at 250 µg/mL (Klebsiella pneumoniae [45]) was 16 mm.
